Laboratory results reported in ChEMBL document CHEMBL1201861, “Genomics of Drug Sensitity in Cancer screening data, Wellcome Trust Sanger Institute”.

What was measured:
Test in all cases: cells
Format in all cases: functional, cell-based
Conditions in all cases: Homo sapiens
[1] = system: A101D;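 further: growth inhibition of the cell line, measured with a viability assay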
Description: SANGER: Inhibition of human A101D cell growth in a cell viability assay.

[2] = system: GB-1;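 further: growth of GB-1 cells judged by a viability assay, IC50 marks the concentration inhibiting growth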
Description: SANGER: Inhibition of human GB-1 cell growth in a cell viability assay.

[3] = system: BB30-HNC;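 further: growth inhibition of the cultured cell line, read out by a cell viability assay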
Description: SANGER: Inhibition of human BB30-HNC cell growth in a cell viability assay.

[4] = system: MSTO-211H
Description: SANGER: Inhibition of human MSTO-211H cell growth in a cell viability assay.

[5] = system: NCI-H1650;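 further: growth inhibition of human NCI-H1650 cells measured by a cell viability assay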
Description: SANGER: Inhibition of human NCI-H1650 cell growth in a cell viability assay.

[6] = system: TGBC24TKB;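 further: growth inhibition of human TGBC24TKB cells, read out with a cell viability assay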
Description: SANGER: Inhibition of human TGBC24TKB cell growth in a cell viability assay.

[7] = system: NCI-H226;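 further: cell viability read-out used to gauge growth inhibition of the cells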
Description: SANGER: Inhibition of human NCI-H226 cell growth in a cell viability assay.

[8] = system: ES1;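 further: growth inhibition of ES1 cells, read out with a cell viability assay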
Description: SANGER: Inhibition of human ES1 cell growth in a cell viability assay.

[9] = system: HOP-62;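 further: cell growth inhibition determined with a viability assay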
Description: SANGER: Inhibition of human HOP-62 cell growth in a cell viability assay.

[10] = system: ALL-PO;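 further: growth inhibition of ALL-PO cells, read out by a cell viability assay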
Description: SANGER: Inhibition of human ALL-PO cell growth in a cell viability assay.

[11] = system: RKO;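 further: growth inhibition of human RKO cells, read out with a cell viability assay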
Description: SANGER: Inhibition of human RKO cell growth in a cell viability assay.

[12] = system: MFM-223
Description: SANGER: Inhibition of human MFM-223 cell growth in a cell viability assay.

[13] = system: GR-ST
Description: SANGER: Inhibition of human GR-ST cell growth in a cell viability assay.

[14] = system: SNB-75;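 further: cell viability assay measuring growth inhibition of human SNB-75 cells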
Description: SANGER: Inhibition of human SNB75 cell growth in a cell viability assay.

[15] = system: SJSA-1;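 further: growth inhibition of human SJSA-1 cells, read out through a cell viability measurement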
Description: SANGER: Inhibition of human SJSA-1 cell growth in a cell viability assay.

[16] = system: NB13;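 further: cell viability readout measuring growth inhibition of human NB13 cells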
Description: SANGER: Inhibition of human NB13 cell growth in a cell viability assay.

[17] = system: KNS-42;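 further: growth inhibition of KNS-42 cells, read out with a cell viability assay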
Description: SANGER: Inhibition of human KNS-42 cell growth in a cell viability assay.

[18] = system: HCC1187;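 further: growth inhibition of HCC1187 cells, read out with a cell viability assay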
Description: SANGER: Inhibition of human HCC1187 cell growth in a cell viability assay.

[19] = system: NCI-H1395;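 further: cell viability assay read-out quantifying reduced proliferation of human NCI-H1395 cells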
Description: SANGER: Inhibition of human NCI-H1395 cell growth in a cell viability assay.

[20] = system: SF-539;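 further: Read-out is a cell viability assay, with IC50 reflecting inhibition of cell growth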
Description: SANGER: Inhibition of human SF539 cell growth in a cell viability assay.

[21] = system: L-428
Description: SANGER: Inhibition of human L-428 cell growth in a cell viability assay.

[22] = system: HD-MY-Z;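 further: growth inhibition of HD-MY-Z cells, read out with a cell viability assay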
Description: SANGER: Inhibition of human HD-MY-Z cell growth in a cell viability assay.

[23] = system: SK-LMS-1;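 further: growth inhibition of human SK-LMS-1 cells, read out with a cell viability assay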
Description: SANGER: Inhibition of human SK-LMS-1 cell growth in a cell viability assay.

[24] = system: CTV-1;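 further: growth inhibition of the cell line, read out with a cell viability assay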
Description: SANGER: Inhibition of human CTV-1 cell growth in a cell viability assay.

[25] = system: LS-1034
Description: SANGER: Inhibition of human LS-1034 cell growth in a cell viability assay.

[26] = system: CGTH-W-1;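 further: growth inhibition of human CGTH-W-1 cells measured by cell viability assay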
Description: SANGER: Inhibition of human CGTH-W-1 cell growth in a cell viability assay.

[27] = system: TGBC1TKB;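 further: growth inhibition of TGBC1TKB cells, read out by a cell viability assay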
Description: SANGER: Inhibition of human TGBC1TKB cell growth in a cell viability assay.

[28] = system: LB2241-RCC;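 further: cell viability assay measuring how strongly the cultured human renal carcinoma line is prevented from growing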
Description: SANGER: Inhibition of human LB2241-RCC cell growth in a cell viability assay.

[29] = system: Mo
Description: SANGER: Inhibition of human Mo-T cell growth in a cell viability assay.

[30] = system: TE-8;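 further: growth inhibition of TE-8 cells, measured with a cell viability readout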
Description: SANGER: Inhibition of human TE-8 cell growth in a cell viability assay.

[31] = system: COLO-800;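 further: growth inhibition of COLO-800 cells, read out with a cell viability assay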
Description: SANGER: Inhibition of human COLO-800 cell growth in a cell viability assay.

[32] = system: NCI-H69;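 further: growth inhibition of the cell line, read out with a cell viability assay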
Description: SANGER: Inhibition of human NCI-H69 cell growth in a cell viability assay.

[33] = system: COLO-320-HSR;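 further: growth inhibition of COLO-320-HSR cells, determined with a cell viability assay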
Description: SANGER: Inhibition of human COLO-320-HSR cell growth in a cell viability assay.

[34] = system: CTB-1
Description: SANGER: Inhibition of human CTB-1 cell growth in a cell viability assay.

[35] = system: NCI-H747;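 further: growth inhibition of human NCI-H747 cells, read out by a cell viability assay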
Description: SANGER: Inhibition of human NCI-H747 cell growth in a cell viability assay.

[36] = system: HCC2218;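 further: cell viability assay read-out, with IC50 given as the concentration that inhibits growth of the cell line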
Description: SANGER: Inhibition of human HCC2218 cell growth in a cell viability assay.

[37] = system: HDLM-2;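 further: cell viability assay measuring suppression of HDLM-2 proliferation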
Description: SANGER: Inhibition of human HDLM-2 cell growth in a cell viability assay.

[38] = system: COLO-668
Description: SANGER: Inhibition of human COLO-668 cell growth in a cell viability assay.

[39] = system: NB10;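 further: growth inhibition of NB10 cells, read out by a cell viability assay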
Description: SANGER: Inhibition of human NB10 cell growth in a cell viability assay.

[40] = system: EM-2;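 further: growth inhibition of EM-2 cells, read out with a cell viability assay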
Description: SANGER: Inhibition of human EM-2 cell growth in a cell viability assay.

[41] = system: KINGS-1;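 further: cell viability assay measuring suppression of KINGS-1 cell growth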
Description: SANGER: Inhibition of human KINGS-1 cell growth in a cell viability assay.

[42] = system: KY821;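 further: growth inhibition of human KY821 cells, read out by a cell viability assay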
Description: SANGER: Inhibition of human KY821 cell growth in a cell viability assay.

[43] = system: KNS-81-FD;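 further: growth inhibition of KNS-81-FD cells, read out with a cell viability assay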
Description: SANGER: Inhibition of human KNS-81-FD cell growth in a cell viability assay.

[44] = system: NEC8;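 further: growth inhibition of human NEC8 cells, read out by a cell viability assay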
Description: SANGER: Inhibition of human NEC8 cell growth in a cell viability assay.

[45] = system: EOL1;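 further: growth inhibition of EoL-1 cells, read out by a cell viability assay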
Description: SANGER: Inhibition of human EoL-1-cell cell growth in a cell viability assay.

[46] = system: LB1047-RCC;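 further: inhibition of cell growth, determined with a cell viability assay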
Description: SANGER: Inhibition of human LB1047-RCC cell growth in a cell viability assay.

[47] = system: MC116;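 further: growth inhibition of MC116 cells, read out with a cell viability assay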
Description: SANGER: Inhibition of human MC116 cell growth in a cell viability assay.

[48] = system: SK-N-DZ;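 further: growth inhibition of the cancer cell line, read out through a viability assay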
Description: SANGER: Inhibition of human SK-N-DZ cell growth in a cell viability assay.

[49] = system: DSH1;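 further: growth inhibition of human DSH1 cells, measured with a cell viability readout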
Description: SANGER: Inhibition of human DSH1 cell growth in a cell viability assay.

[50] = system: LAMA-84;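 further: growth inhibition of LAMA-84 cells, read out with a cell viability assay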
Description: SANGER: Inhibition of human LAMA-84 cell growth in a cell viability assay.

[51] = system: NCI-H82;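 further: growth inhibition of NCI-H82 cells, measured with a cell viability readout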
Description: SANGER: Inhibition of human NCI-H82 cell growth in a cell viability assay.

[52] = system: RH-1;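 further: growth inhibition of human RH-1 cells, read out with a cell viability assay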
Description: SANGER: Inhibition of human RH-1 cell growth in a cell viability assay.

[53] = system: AM-38;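 further: growth inhibition of AM-38 cells of human origin, read out by a cell viability assay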
Description: SANGER: Inhibition of human AM-38 cell growth in a cell viability assay.

[54] = system: A388;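 further: growth inhibition of human A388 cells, read out with a cell viability assay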
Description: SANGER: Inhibition of human A388 cell growth in a cell viability assay.

[55] = system: DMS-114
[56] = system: TE-9;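 further: cell growth inhibition, measured with a cell viability readout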
Description: SANGER: Inhibition of human TE-9 cell growth in a cell viability assay.

[57] = system: KGN
Description: SANGER: Inhibition of human KGN cell growth in a cell viability assay.

[58] = system: SNU-C2B
Description: SANGER: Inhibition of human SNU-C2B cell growth in a cell viability assay.

[59] = system: Becker
Description: SANGER: Inhibition of human Becker cell growth in a cell viability assay.

[60] = system: NCI-H1355
Description: SANGER: Inhibition of human NCI-H1355 cell growth in a cell viability assay.

[61] = system: CAS-1
Description: SANGER: Inhibition of human CAS-1 cell growth in a cell viability assay.

[62] = system: SF-126
Description: SANGER: Inhibition of human SF126 cell growth in a cell viability assay.

[63] = system: HC-1
Description: SANGER: Inhibition of human HC-1 cell growth in a cell viability assay.

[64] = system: U-266
Description: SANGER: Inhibition of human U-266 cell growth in a cell viability assay.

[65] = system: NCI-H720
Description: SANGER: Inhibition of human NCI-H720 cell growth in a cell viability assay.

[66] = system: TE-12
Description: SANGER: Inhibition of human TE-12 cell growth in a cell viability assay.

C/C=C(/C)C(=O)O[C@H]1C(C)=C2[C@H]([C@@H]1OC(=O)CCCCCCC)[C@@](C)(OC(C)=O)C[C@H](OC(=O)CCC)[C@@]1(O)[C@H]2OC(=O)[C@@]1(C)O [THAPSIGARGIN]
IC50 [1]: 4.82 nM | IC50 [2]: 114 nM | IC50 [3]: 0.984 nM | IC50 [4]: 293 nM | IC50 [5]: 147 nM | IC50 [6]: < 2 nM | IC50 [7]: 2.41 nM | IC50 [8]: < 2 nM | IC50 [9]: 0.601 nM | IC50 [10]: 16.3 nM | IC50 [11]: 1.61 nM | IC50 [12]: > 512 nM | IC50 [13]: 10.5 nM | IC50 [14]: 32.6 nM | IC50 [15]: 3 nM | IC50 [16]: 9.45 nM | IC50 [17]: 16.9 nM | IC50 [18]: 505 nM | IC50 [19]: 176 nM | IC50 [20]: 1.94 nM | IC50 [21]: > 512 nM | IC50 [22]: 17.5 nM | IC50 [23]: < 2 nM | IC50 [24]: 5.2 nM | IC50 [25]: 29 nM | IC50 [26]: < 2 nM | IC50 [27]: 0.509 nM | IC50 [28]: 66 nM | IC50 [29]: > 512 nM | IC50 [30]: 1.37 nM | IC50 [31]: 51.3 nM | IC50 [32]: 56.7 nM | IC50 [33]: 48 nM | IC50 [34]: 17 nM | IC50 [35]: 100 nM | IC50 [36]: 58.9 nM | IC50 [37]: 215 nM | IC50 [38]: 19.7 nM | IC50 [39]: 63.2 nM | IC50 [40]: 55.4 nM | IC50 [41]: 7.59 nM | IC50 [42]: 0.636 nM | IC50 [43]: > 512 nM | IC50 [44]: 11 nM | IC50 [45]: 24.2 nM | IC50 [46]: 7.05 nM | IC50 [47]: < 2 nM | IC50 [48]: 43.2 nM | IC50 [49]: 13.9 nM | IC50 [50]: 19.4 nM | IC50 [51]: 31.1 nM | IC50 [52]: 43.4 nM | IC50 [53]: 14.8 nM | IC50 [54]: 1.39 nM | IC50 [55]: > 512 nM | IC50 [56]: 13.3 nM | IC50 [57]: < 2 nM | IC50 [58]: 12.4 nM | IC50 [59]: 135 nM | IC50 [60]: 5.48 nM | IC50 [61]: 118 nM | IC50 [62]: 38.3 nM | IC50 [63]: 109 nM | IC50 [64]: 2.91 nM | IC50 [65]: > 512 nM | IC50 [66]: 10.6 nM

C[C@]1(c2nc3c(C(N)=O)cccc3[nH]2)CCCN1 [VELIPARIB]
IC50 [1]: > 5000 nM | IC50 [2]: > 5000 nM | IC50 [3]: > 5000 nM | IC50 [4]: > 5000 nM | IC50 [5]: > 5000 nM | IC50 [6]: > 5000 nM | IC50 [7]: > 5000 nM | IC50 [8]: > 5000 nM | IC50 [9]: > 5000 nM | IC50 [10]: > 5000 nM | IC50 [11]: > 5000 nM | IC50 [12]: > 5000 nM | IC50 [13]: > 5000 nM | IC50 [14]: > 5000 nM | IC50 [15]: > 5000 nM | IC50 [16]: > 5000 nM | IC50 [17]: > 5000 nM | IC50 [18]: > 5000 nM | IC50 [19]: > 5000 nM | IC50 [20]: > 5000 nM | IC50 [21]: > 5000 nM | IC50 [22]: > 5000 nM | IC50 [23]: > 5000 nM | IC50 [24]: > 5000 nM | IC50 [25]: > 5000 nM | IC50 [26]: > 5000 nM | IC50 [27]: > 5000 nM | IC50 [28]: > 5000 nM | IC50 [29]: > 5000 nM | IC50 [30]: > 5000 nM | IC50 [31]: > 5000 nM | IC50 [32]: > 5000 nM | IC50 [33]: > 5000 nM | IC50 [34]: > 5000 nM | IC50 [35]: > 5000 nM | IC50 [36]: > 5000 nM | IC50 [37]: > 5000 nM | IC50 [38]: > 5000 nM | IC50 [39]: > 5000 nM | IC50 [40]: > 5000 nM | IC50 [41]: > 5000 nM | IC50 [42]: > 5000 nM | IC50 [43]: > 5000 nM | IC50 [44]: > 5000 nM | IC50 [45]: 1080 nM | IC50 [46]: > 5000 nM | IC50 [47]: > 5000 nM | IC50 [48]: > 5000 nM | IC50 [49]: > 5000 nM | IC50 [50]: > 5000 nM | IC50 [51]: > 5000 nM | IC50 [52]: > 5000 nM | IC50 [53]: > 5000 nM | IC50 [54]: > 5000 nM | IC50 [55]: > 5000 nM | IC50 [56]: > 5000 nM | IC50 [57]: > 5000 nM | IC50 [58]: > 5000 nM | IC50 [59]: > 5000 nM | IC50 [60]: > 5000 nM | IC50 [61]: > 5000 nM | IC50 [62]: > 5000 nM | IC50 [63]: > 5000 nM | IC50 [64]: > 5000 nM | IC50 [65]: > 5000 nM | IC50 [66]: > 5000 nM
